# Measurements: PMC10352132 (Nature Structural & Molecular Biology, 2023)
# Where “and” joins values, the source holds several entries; their conditions need not be identical. Equal values may be shown once. Read-outs that look alike come from different tables or passages of the source.
# Legend:
# [1] = target: T1, rGAT1EM (Rattus norvegicus, UniProt P23978, D482E/E486D/F312Y/N483D/Q485R/R491P/S490F/V488I/Y481S); experiment: Inhibition of 3H-GABA uptake through rGAT1EM; type: cell-based; settings: rGAT1EM; for 3[H]GABA uptake (% of uninhibited sample): replicates T1-T6
# T1 sequence (P23978 with tags, fused parts or gaps F312Y/Y481S/D482E/N483D/Q485R/E486D/V488I/S490F/R491P): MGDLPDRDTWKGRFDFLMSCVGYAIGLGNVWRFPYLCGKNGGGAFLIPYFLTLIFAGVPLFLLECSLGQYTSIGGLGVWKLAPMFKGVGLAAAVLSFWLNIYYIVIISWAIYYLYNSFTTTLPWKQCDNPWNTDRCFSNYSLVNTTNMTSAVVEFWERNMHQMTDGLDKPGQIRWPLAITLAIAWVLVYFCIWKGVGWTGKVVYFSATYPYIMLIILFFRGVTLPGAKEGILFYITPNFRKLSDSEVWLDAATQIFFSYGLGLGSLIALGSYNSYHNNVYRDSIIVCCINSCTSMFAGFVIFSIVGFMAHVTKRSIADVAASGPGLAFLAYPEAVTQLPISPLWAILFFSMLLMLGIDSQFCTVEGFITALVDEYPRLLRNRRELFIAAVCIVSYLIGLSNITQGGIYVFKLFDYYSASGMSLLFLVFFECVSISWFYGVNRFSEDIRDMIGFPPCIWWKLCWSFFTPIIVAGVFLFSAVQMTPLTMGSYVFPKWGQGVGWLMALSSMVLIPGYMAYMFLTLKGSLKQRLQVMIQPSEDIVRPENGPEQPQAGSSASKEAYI
# Protocol: (§1) […]. After 15 min, the uptake was arrested with 100 µl of ice-cold assay buffer and washed two times with the same buffer. The cells were solubilized for 1 h in 100 µl of 20 mM DDM and 2 mM CHS, and 50 µl of scintillant was added to the solubilized material. Counts were measured using a MicroBeta scintillation counter. Uninfected cells were used as a control. The background-subtracted dose–response curves were plotted as log [inhibitor] versus response using GraphPad Prism (version 5.0.1) and IC50 values were determined. The Ki values were calculated using Cheng-Prusoff’s equation. […] The data were analyzed using GraphPad Prism (version 5.0.1).
# [2] = target: T2, rGAT1WT (Rattus norvegicus, UniProt P23978); experiment: MS binding assay (LC-ESI-MS/MS saturation) with rGAT1WT expressing membranes; settings: for total binding / non-specific binding: rGAT1WT; for total binding: triplicate; for non-specific binding: in the presence of 100 mM GABA
# Protocol: (§2) The cell suspension was sonicated, the lysate was centrifuged at 21,000×g to separate the cell debris and 1 ml of the supernatant was aliquoted into each of forty 1.5 ml microfuge tubes. The membrane suspension was spun at 49,000×g for 90 min in a TLA100.1 rotor (Beckman) followed by flash-freezing and storage at −80 °C.
# (§3) Binding experiments were performed as described unless stated otherwise. Aliquots of rGAT1 or hGAT1[53] membrane preparations were defrosted, diluted in 20 ml 50 mM Tris-citrate buffer containing 1 M NaCl, pH 7.1 (assay buffer) and centrifuged (50,000×g, 4 °C, 20 min). After resuspension of the pellet in assay buffer, saturation experiments with NO711 were performed in triplicate samples (about 10 µg protein) in a total assay volume of 250 µl. […] Incubation was performed for 40 min at 37 °C; subsequently, 200 µl aliquots of the binding samples were transferred onto 96-well filter plates and filtrated under vacuum, followed by rapid washing of the filters with ice-cold 0.9% NaCl (3 × 150 µl). The filter plates were then dried (60 min, 50 °C) and eluted with 3 × 100 µl methanol (containing 1.43 nM D10-NO711). […] Analysis of the binding data was performed with GraphPad Prism (version 6.0.7). The results are based on at least three independent saturation experiments for each GAT1 species.
# [3] = target: T1, rGAT1EM; experiment: MS binding assay (LC-ESI-MS/MS saturation) with rGAT1EM expressing membranes; settings: for total binding / non-specific binding: rGAT1EM; for total binding: triplicate; for non-specific binding: in the presence of 100 mM GABA
# Protocol: as §2, §3
# [4] = target: T2, rGAT1WT; experiment: Inhibition of 3H-GABA uptake through rGAT1WT; type: cell-based; settings: rGAT1WT; for 3[H]GABA uptake (% of uninhibited sample): replicates T1-T6
# Protocol: as §1
# [5] = calculated using Cheng-Prusoff's equation
smiles,measurement,setting,value
O=C(O)C1=CCCN(CCON=C(c2ccccc2)c2ccccc2)C1 [NO711],Ki,[1]; [5],0.053 ± 0.004 µM
same,3[H]GABA uptake (% of uninhibited sample),"[1]; inhibitor 1 nM, 0.001 µM",100.216% and 103.239% and 95.1781% and 97.6251% and 105.398% and 98.3447%
same,3[H]GABA uptake (% of uninhibited sample),"[1]; inhibitor 10 nM, 0.01 µM",90.824% and 80.7485% and 91.6877% and 97.5891% and 93.055% and 87.4415%
same,3[H]GABA uptake (% of uninhibited sample),"[1]; inhibitor 30 nM, 0.03 µM",85.8582% and 72.9759% and 75.9266% and 79.8129% and 79.2371% and 88.8089%
same,3[H]GABA uptake (% of uninhibited sample),"[1]; inhibitor 100 nM, 0.1 µM",55.6315% and 53.1846% and 49.5862% and 54.3361% and 66.2109% and 52.321%
same,3[H]GABA uptake (% of uninhibited sample),"[1]; inhibitor 500 nM, 0.5 µM",29.8309% and 34.7967% and 26.0165% and 31.1983% and 34.4368% and 36.2361%
same,3[H]GABA uptake (% of uninhibited sample),"[1]; inhibitor 1000 nM, 1 µM",17.0205% and 18.9637% and 19.4674% and 16.1569% and 19.1796% and 13.2062%
same,3[H]GABA uptake (% of uninhibited sample),"[1]; inhibitor 3000 nM, 3 µM",9.608% and 6.153% and 8.168% and 9.104% (2×) and 11.1191%
same,3[H]GABA uptake (% of uninhibited sample),"[1]; inhibitor 10000 nM, 10 µM",5.11% and 2.879% and 4.39% and 4.246% and 2.375% and 5.038%
same,3[H]GABA uptake (% of uninhibited sample),"[1]; inhibitor 50000 nM, 50 µM",1.763% and 1.439% and 0.8276% and 1.799% and 0.8996% and 1.3674%
same,3[H]GABA uptake (% of uninhibited sample),"[1]; inhibitor 100000 nM, 100 µM",0.5757% and 0.6477% and 0.7197% and 0.5038% (2×) and 0.3598%
same,IC50,[1]; read-out: IC50 of inhibition of 3H-GABA uptake,0.155 µM
same,IC50,[1]; read-out: inhibition potencies (K0.5),0.155 µM
same,BMAX (MS binding assay),[2]; rGAT1WT membranes,166.4 ± 44.6 pmol/mg protein
same,Kd,[2]; rGAT1WT membranes,0.05 µM and 0.0506 µM
same,total binding,[2]; c NO711 2.5 nM,0.0851 nM and 0.0839 nM and 0.0992 nM
same,total binding,[2]; c NO711 5 nM,0.236 nM and 0.225 nM and 0.219 nM
same,total binding,[2]; c NO711 10 nM,0.387 nM and 0.361 nM
same,total binding,[2]; c NO711 20 nM,0.566 nM and 0.612 nM and 0.546 nM
same,non-specific binding,[2]; c NO711 40 nM,0.0154 nM and 0.0179 nM and 0.0127 nM
same,total binding,[2]; c NO711 40 nM,0.967 nM and 0.954 nM and 0.928 nM
same,non-specific binding,[2]; c NO711 80 nM,0.0317 nM and 0.0305 nM and 0.029 nM
same,total binding,[2]; c NO711 80 nM,1.15 nM and 1.08 nM and 1.2 nM
same,non-specific binding,[2]; c NO711 160 nM,0.0708 nM and 0.0715 nM and 0.07 nM
same,total binding,[2]; c NO711 160 nM,1.46 nM and 1.6 nM
same,non-specific binding,[2]; c NO711 320 nM,0.131 nM and 0.157 nM and 0.18 nM
same,total binding,[2]; c NO711 320 nM,1.95 nM and 1.86 nM and 1.76 nM
same,non-specific binding,[2]; c NO711 640 nM,0.27 nM and 0.291 nM and 0.276 nM
same,total binding,[2]; c NO711 640 nM,2.12 nM and 2.1 nM and 2.38 nM
same,non-specific binding,[2]; c NO711 1280 nM,0.65 nM and 0.595 nM and 0.624 nM
same,total binding,[2]; c NO711 1280 nM,2.77 nM and 2.69 nM and 2.73 nM
same,BMAX (MS binding assay),[3]; rGAT1EM membranes,212.4 ± 30.3 pmol/mg protein
same,Kd,[3]; rGAT1EM membranes,0.08 µM and 0.0807 µM
same,total binding,[3]; c NO711 2.5 nM,0.0853 nM and 0.0717 nM and 0.0765 nM
same,total binding,[3]; c NO711 5 nM,0.175 nM and 0.157 nM and 0.182 nM
same,total binding,[3]; c NO711 10 nM,0.266 nM and 0.298 nM and 0.282 nM
same,total binding,[3]; c NO711 20 nM,0.414 nM and 0.405 nM and 0.393 nM
same,non-specific binding,[3]; c NO711 40 nM,0.0146 nM and 0.0116 nM and 0.0148 nM
same,total binding,[3]; c NO711 40 nM,0.654 nM and 0.656 nM and 0.82 nM
same,non-specific binding,[3]; c NO711 80 nM,0.0357 nM and 0.0322 nM and 0.0377 nM
same,total binding,[3]; c NO711 80 nM,0.825 nM and 0.877 nM and 0.867 nM
same,non-specific binding,[3]; c NO711 160 nM,0.0681 nM and 0.0747 nM and 0.0767 nM
same,total binding,[3]; c NO711 160 nM,1.22 nM and 1.29 nM and 1.33 nM
same,non-specific binding,[3]; c NO711 320 nM,0.131 nM and 0.148 nM and 0.145 nM
same,total binding,[3]; c NO711 320 nM,1.55 nM and 1.39 nM and 1.57 nM
same,non-specific binding,[3]; c NO711 640 nM,0.281 nM and 0.277 nM and 0.282 nM
same,total binding,[3]; c NO711 640 nM,1.85 nM and 2.19 nM and 2.02 nM
same,non-specific binding,[3]; c NO711 1280 nM,0.608 nM and 0.571 nM and 0.589 nM
same,total binding,[3]; c NO711 1280 nM,2.47 nM and 2.46 nM
same,IC50,[4],0.563 µM
same,Ki,[4]; [5],0.325 ± 0.035 µM
same,3[H]GABA uptake (% of uninhibited sample),"[4]; inhibitor 1 nM, 0.001 µM",91.7343% and 91.298% and 89.6982% and 104.496% and 107.442% and 95.8793%
same,3[H]GABA uptake (% of uninhibited sample),"[4]; inhibitor 10 nM, 0.01 µM",89.0619% and 103.351% and 105.969% and 101.46% and 106.551% and 93.6068%
same,3[H]GABA uptake (% of uninhibited sample),"[4]; inhibitor 30 nM, 0.03 µM",83.2626% and 81.7356% and 90.8981% and 90.6072% and 95.952% and 94.6794%
same,3[H]GABA uptake (% of uninhibited sample),"[4]; inhibitor 100 nM, 0.1 µM",91.189% and 83.9535% and 82.5718% and 49.5576% and 81.2629% and 73.9547%
same,3[H]GABA uptake (% of uninhibited sample),"[4]; inhibitor 500 nM, 0.5 µM",55.0115% and 49.6303% and 48.5396% and 53.3026% and 54.4298% and 46.4671%
same,3[H]GABA uptake (% of uninhibited sample),"[4]; inhibitor 1000 nM, 1 µM",39.1225% and 40.286% and 41.9222% and 36.8319% and 37.6318% and 37.6682%
same,3[H]GABA uptake (% of uninhibited sample),"[4]; inhibitor 3000 nM, 3 µM",18.3614% and 14.2165% and 17.0888% and 16.5071%
